Measurements from paper PMC6925188, “PBRM1 acts as a p53 lysine-acetylation reader to suppress renal tumor growth” (Nature Communications, 2019).
Marks after values point to notes of the source that are not given here.

Assays:
[1] = test system: ACHN cells; experiment: Cell cycle analysis, ACHN shRNA knockdown cells; format: cell-based; design: Sub-G1: unit not given here; details: 50 μM
Experimental: Lysates were analyzed via immunoblots. f, g, h. ACHN control, p53 and p21 shRNA knockdown cells were harvested for […]
Representative data is shown i n g. […] Source data are provided as a Source

[2] = test system: p53 binding to CDKN1A; experiment: ChIP-qPCR, p53 antibody, CDKN1A gene, RCC4 cells; format: cell-based; design: p53 ChIP at CDKN1A-intron / p53 ChIP at CDKN1A-RE1 / p53 ChIP at CDKN1A-TSS: unit not given here; details: 24 h; for p53 ChIP at CDKN1A-RE1 / p53 ChIP at CDKN1A-TSS / p53 ChIP at CDKN1A-intron: 100 μM
Experimental: Lysates were analyzed by immunoblots. c RCC4 cells with or without p53 KO were transfected with vector or Flag-PBRM1 at the indicated amounts. […] Cells were harvested for RT-qPCR (g) or ChIP followed by qPCR (h). […] Representative data is shown in i. Quantification of cell cycle phase is shown in j. Source data are provided as a Source Data file.
ChIP assays were performed with the Pierce Agarose ChIP Kit (26156, Thermo Scientific) according to the manufacturer’s instructions with minor revisions. In brief, samples were crosslinked with 1% paraformaldehyde and halted by 125 mM glycine. After washing twice with ice-cold PBS, cells were harvested and suspended in Lysis Buffer 1 and incubated on ice for 10 min. 1 × 10^7 nuclei were resuspended in 500 μl MNase Digestion Buffer containing 6.25 U Micrococcal Nuclease and incubated at 37 °C for 15 min. After the reaction was stopped, nuclei were pelleted by centrifugation and resuspended in 250 μl Lysis Buffer 2. Nuclei were sonicated at 10% amplitude for 10 s twice and incubated on ice for 30 min. After centrifugation, 50 μl supernatant containing the digested chromatin from 2 × 10^6 nuclei was diluted in 1× IP Dilution Buffer and incubated with antibodies (normal rabbit IgG for control, 1 μg FL393 + 1 μg DO-1 for p53 or 2 μg Flag M2 for Flag-PBRM1) overnight at 4 °C. […] of ChIP Grade Protein A/G Plus Agarose was added and incubated for 1 h at 4 °C. The agarose resins were washed once with IP Wash Buffer 1, twice with IP Wash Buffer 2 and once with IP Wash Buffer 3. 150 μl 1× IP Elution Buffer was added to the washed resin and incubated at 65 °C for 30 min with shaking. The eluate was treated with Proteinase K and DNA was extracted with columns provided in the kit.

COc1cc([C@@H]2c3cc4c(cc3[C@@H](O[C@@H]3O[C@@H]5CO[C@@H](C)O[C@H]5[C@H](O)[C@H]3O)[C@H]3COC(=O)[C@H]23)OCO4)cc(OC)c1O [Etoposide]
G0/G1 ([1]; ACHN-sh-PBRM1#1, assay 1): 10.9
G2/M ([1]; ACHN-sh-PBRM1#1, assay 1): 66.9
S ([1]; ACHN-sh-PBRM1#1, assay 1): 15.8
Sub-G1 ([1]; ACHN-sh-PBRM1#1, assay 1): 5.5
G0/G1 ([1]; ACHN-sh-PBRM1#1, assay 2): 15.3
G2/M ([1]; ACHN-sh-PBRM1#1, assay 2): 36.8
S ([1]; ACHN-sh-PBRM1#1, assay 2): 33.9
Sub-G1 ([1]; ACHN-sh-PBRM1#1, assay 2): 12.3
G0/G1 ([1]; ACHN-sh-PBRM1#1, assay 3): 16.9
G2/M ([1]; ACHN-sh-PBRM1#1, assay 3): 39.4
S ([1]; ACHN-sh-PBRM1#1, assay 3): 35.3
Sub-G1 ([1]; ACHN-sh-PBRM1#1, assay 3): 6.8
G0/G1 ([1]; ACHN-sh-PBRM1#2, assay 1): 50.7
G2/M ([1]; ACHN-sh-PBRM1#2, assay 1): 29.4
S ([1]; ACHN-sh-PBRM1#2, assay 1): 17.3
Sub-G1 ([1]; ACHN-sh-PBRM1#2, assay 1): 1.2
G0/G1 ([1]; ACHN-sh-PBRM1#2, assay 2): 45.9
G2/M ([1]; ACHN-sh-PBRM1#2, assay 2): 20.7
S ([1]; ACHN-sh-PBRM1#2, assay 2): 26.7
Sub-G1 ([1]; ACHN-sh-PBRM1#2, assay 2): 5
G0/G1 ([1]; ACHN-sh-PBRM1#2, assay 3): 48.7
G2/M ([1]; ACHN-sh-PBRM1#2, assay 3): 22.6
S ([1]; ACHN-sh-PBRM1#2, assay 3): 24.8
Sub-G1 ([1]; ACHN-sh-PBRM1#2, assay 3): 1.6
G0/G1 ([1]; ACHN-sh-SCR, assay 1): 54.8
G2/M ([1]; ACHN-sh-SCR, assay 1): 26.5
S ([1]; ACHN-sh-SCR, assay 1): 16.1
Sub-G1 ([1]; ACHN-sh-SCR, assay 1): 1.5
G0/G1 ([1]; ACHN-sh-SCR, assay 2): 51.3
G2/M ([1]; ACHN-sh-SCR, assay 2): 21.3
S ([1]; ACHN-sh-SCR, assay 2): 25.2
Sub-G1 ([1]; ACHN-sh-SCR, assay 2): 1.4
G0/G1 ([1]; ACHN-sh-SCR, assay 3): 43.6
G2/M ([1]; ACHN-sh-SCR, assay 3): 27
S ([1]; ACHN-sh-SCR, assay 3): 25.3
Sub-G1 ([1]; ACHN-sh-SCR, assay 3): 2.1
G0/G1 ([1]; ACHN-sh-p21#1, assay 1): 40.5
G2/M ([1]; ACHN-sh-p21#1, assay 1): 38.3
S ([1]; ACHN-sh-p21#1, assay 1): 18.7
Sub-G1 ([1]; ACHN-sh-p21#1, assay 1): 1.3
G0/G1 ([1]; ACHN-sh-p21#1, assay 2): 47.7
G2/M ([1]; ACHN-sh-p21#1, assay 2): 23.1
S ([1]; ACHN-sh-p21#1, assay 2): 27.2
Sub-G1 ([1]; ACHN-sh-p21#1, assay 2): 1
G0/G1 ([1]; ACHN-sh-p21#1, assay 3): 48.6
G2/M ([1]; ACHN-sh-p21#1, assay 3): 22.6
S ([1]; ACHN-sh-p21#1, assay 3): 26
Sub-G1 ([1]; ACHN-sh-p21#1, assay 3): 0.8
G0/G1 ([1]; ACHN-sh-p21#2, assay 1): 14.3
G2/M ([1]; ACHN-sh-p21#2, assay 1): 65.7
S ([1]; ACHN-sh-p21#2, assay 1): 15.1
Sub-G1 ([1]; ACHN-sh-p21#2, assay 1): 4
G0/G1 ([1]; ACHN-sh-p21#2, assay 2): 11.9
G2/M ([1]; ACHN-sh-p21#2, assay 2): 48.4
S ([1]; ACHN-sh-p21#2, assay 2): 31.1
Sub-G1 ([1]; ACHN-sh-p21#2, assay 2): 6.9
G0/G1 ([1]; ACHN-sh-p21#2, assay 3): 14.7
G2/M ([1]; ACHN-sh-p21#2, assay 3): 42.4
S ([1]; ACHN-sh-p21#2, assay 3): 35.8
Sub-G1 ([1]; ACHN-sh-p21#2, assay 3): 5.3
G0/G1 ([1]; ACHN-sh-p53, assay 1): 6.3
G2/M ([1]; ACHN-sh-p53, assay 1): 68.3
S ([1]; ACHN-sh-p53, assay 1): 16.5
Sub-G1 ([1]; ACHN-sh-p53, assay 1): 6.2
G0/G1 ([1]; ACHN-sh-p53, assay 2): 11.6
G2/M ([1]; ACHN-sh-p53, assay 2): 30
S ([1]; ACHN-sh-p53, assay 2): 34.2
Sub-G1 ([1]; ACHN-sh-p53, assay 2): 20.3
G0/G1 ([1]; ACHN-sh-p53, assay 3): 10.6
G2/M ([1]; ACHN-sh-p53, assay 3): 39
S ([1]; ACHN-sh-p53, assay 3): 34.6
Sub-G1 ([1]; ACHN-sh-p53, assay 3): 11.3
p53 binding to CDKN1A RE1 with PBRM1 ([2]; 100 μM etoposide, RCC4): significantly enhanced by wild-type but not BD4* mutant PBRM1
p53 ChIP at CDKN1A-RE1 ([2]; RCC4-GFP, assay 1): 1.555
p53 ChIP at CDKN1A-TSS ([2]; RCC4-GFP, assay 1): 0.1782
p53 ChIP at CDKN1A-intron ([2]; RCC4-GFP, assay 1): 0.077
p53 ChIP at CDKN1A-RE1 ([2]; RCC4-GFP, assay 2): 1.8621
p53 ChIP at CDKN1A-TSS ([2]; RCC4-GFP, assay 2): 0.1891
p53 ChIP at CDKN1A-intron ([2]; RCC4-GFP, assay 2): 0.0504
p53 ChIP at CDKN1A-RE1 ([2]; RCC4-GFP, assay 3): 1.9888
p53 ChIP at CDKN1A-TSS ([2]; RCC4-GFP, assay 3): 0.2677
p53 ChIP at CDKN1A-intron ([2]; RCC4-GFP, assay 3): 0.06
p53 ChIP at CDKN1A-RE1 ([2]; RCC4-PBRM1-BD4*, assay 1): 1.5332
p53 ChIP at CDKN1A-TSS ([2]; RCC4-PBRM1-BD4*, assay 1): 0.1764
p53 ChIP at CDKN1A-intron ([2]; RCC4-PBRM1-BD4*, assay 1): 0.0801
p53 ChIP at CDKN1A-RE1 ([2]; RCC4-PBRM1-BD4*, assay 2): 1.7924
p53 ChIP at CDKN1A-TSS ([2]; RCC4-PBRM1-BD4*, assay 2): 0.1865
p53 ChIP at CDKN1A-intron ([2]; RCC4-PBRM1-BD4*, assay 2): 0.0517
p53 ChIP at CDKN1A-RE1 ([2]; RCC4-PBRM1-BD4*, assay 3): 1.8343
p53 ChIP at CDKN1A-TSS ([2]; RCC4-PBRM1-BD4*, assay 3): 0.221
p53 ChIP at CDKN1A-intron ([2]; RCC4-PBRM1-BD4*, assay 3): 0.0545
p53 ChIP at CDKN1A-RE1 ([2]; RCC4-PBRM1, assay 1): 1.8428
p53 ChIP at CDKN1A-TSS ([2]; RCC4-PBRM1, assay 1): 0.2655
p53 ChIP at CDKN1A-intron ([2]; RCC4-PBRM1, assay 1): 0.0601
p53 ChIP at CDKN1A-RE1 ([2]; RCC4-PBRM1, assay 2): 2.4571
p53 ChIP at CDKN1A-TSS ([2]; RCC4-PBRM1, assay 2): 0.2336
p53 ChIP at CDKN1A-intron ([2]; RCC4-PBRM1, assay 2): 0.0759
p53 ChIP at CDKN1A-RE1 ([2]; RCC4-PBRM1, assay 3): 2.4942
p53 ChIP at CDKN1A-TSS ([2]; RCC4-PBRM1, assay 3): 0.2293
p53 ChIP at CDKN1A-intron ([2]; RCC4-PBRM1, assay 3): 0.0609
